Laboratory results as given in patent US20120308548A1 (NOVA SOUTHEASTERN UNIVERSITY, priority 2010, published 2012).
Values joined by “and” are separate entries in the source; they are usually repeats but may differ in a detail not shown here. Equal values may be shown once. “Also recorded” adds a separate entry of the source. Read-outs that look alike come from different tables or passages of the source.

How the values were obtained:
[1] = target: T1, MEGL/2ABD (Porphyromonas gingivalis, UniProt Q7MX71); format: biochemical; settings: isotope assay, FIG. 13E
T1 construct: hexa-His tag with TEV protease site (N, cleaved yes); made in house; host or cells: E. coli BL21 (DE3)
T1 sequence (Q7MX71 7-399): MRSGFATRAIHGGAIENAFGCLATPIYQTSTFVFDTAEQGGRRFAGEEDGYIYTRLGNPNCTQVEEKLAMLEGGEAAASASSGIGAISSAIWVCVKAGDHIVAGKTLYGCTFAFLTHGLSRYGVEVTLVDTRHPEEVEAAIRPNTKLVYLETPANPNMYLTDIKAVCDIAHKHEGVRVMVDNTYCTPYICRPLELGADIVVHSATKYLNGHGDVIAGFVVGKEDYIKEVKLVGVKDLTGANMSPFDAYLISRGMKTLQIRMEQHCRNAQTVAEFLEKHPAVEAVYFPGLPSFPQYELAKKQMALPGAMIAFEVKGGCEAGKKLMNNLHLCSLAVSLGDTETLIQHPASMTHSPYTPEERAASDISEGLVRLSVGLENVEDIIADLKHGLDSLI
Description: Typically the overall reaction of α-ketobutyrate formation was performed in a total volume of 24 μl. The reaction contained 4 μl of reaction buffer [150 mM Tris-HCl (pH 8.0)], 4 μl of 1 mM pyridoxal phosphate (PLP), 3 μl of H2O, 6 μl of storage buffer, and 4 μl of diluted protein (0.4 μg), gently mixed and incubated at 37° C. for 5 minutes. The reaction was started by adding 1.93×10^5 cpm of 1-^14C-L-methionine (8814 cpm/nmol) and the contents were incubated at 37° C. for 15 minutes. The reaction was stopped by boiling for a minute, cooled on ice for 2 minutes and centrifuged at 3575 g for 7 minutes. A 2 μl aliquot was then chromatographed on a silica gel plate using 25% 20 mM phosphate buffer (pH 7.0) and 75% acetonitrile. Following chromatography, the TLC plates were dried, and exposed to x-ray film for 36-48 hours (Eastman-Kodak Co). The respective spots of substrate and products were cut out and radioactivity determined by liquid scintillation. […]

[2] = system: BHK-21 cells; experiment: Transfection with MEGL/2ABD construct, confocal microscopy, BHK-21; format: cell-based; settings: for effect of expressed MEGL/2ABD on BHK-21 cells: cell aggregation: 18 hours after transfection
Excerpt: (§1) The recombinant vector pMEGL-ET containing MEGL insert and pEGFP-C3 mammalian expression vector (Promega, Inc.) were digested with EcoR I and Bgl II restriction enzymes. The digested products were separated on 1% agarose to verify digestion and the MEGL insert was ligated into pEGFP-C3 vector. The ligated vector was then transformed into DH5α bacteria and the recombinant colonies were selected by kanamycin resistance. The plasmid from the recombinant colonies, were further tested for the insert by PCR using MEGL/2ABD specific primers. The recombinant bacteria, was then grown in bulk, plasmid isolated by maxi/mini preps using columns (Qiagen, Inc.). Purified plasmid was then used for mammalian transfection. HeLa, HEK-AD293T and BHK-21 cells (ATCC, Rockville, Md.) were grown in 75-cm^2 flasks in Dulbecco's modified Eagle's medium, supplemented with 10% fetal bovine serum 100 units/ml penicillin and 100 μg/ml streptomycin (Invitrogen Inc), in an atmosphere of 5% CO2, 95% air at 37° C. For confocal microscopy, cells were plated on cover slips in 35 mm^2 dishes. When cells reached 50-75% confluency they were placed in serum and antibiotic-free medium and co-transfected with plasmid DNA containing GFP and with or without MEGL/2ABD insert. […] Transfections of HEK-AD293T cells were performed using standard calcium phosphate methods. After incubation of cells for 4-18 hours, cells were washed with phosphate-buffered saline, fixed with 4% formaldehyde for 8 minutes, permeabilized using 0.2% Triton X-100 (Sigma-Aldrich) and mounted on glass slides using the ProLong Antifade Kit (Molecular Probes) for staining with DAPI using standard protocols. Samples were examined on a Zeiss LSM510 confocal microscope.
(§2) After 18 hour incubations cells were washed with phosphate-buffered saline, fixed, permeabilized and mounted on glass slides using the ProLong Antifade Kit (Molecular Probes) with DAPI staining as previously described by Enniga et al. 2006. Samples were examined on a Zeiss LSM510 confocal microscope.

[3] = system: HEK-AD293T cells; experiment: Transfection with MEGL/2ABD construct, confocal microscopy, HEK-AD293T; format: cell-based; settings: for effect of expressed MEGL/2ABD on HEK-AD293T cells: cell aggregation: 18 hours after transfection
Excerpt: as §1, §2

[4] = system: HeLa cells; experiment: Transfection with MEGL/2ABD construct, confocal microscopy (GFP, DAPI), HeLa; format: cell-based; settings: for rescue of MEGL/2ABD-transfected HeLa cells from death: propargylglycine in culture medium (10 μM, 2 hours after transfection)
Excerpt: as §1, §2

[5] = target: T2, MEGL (Porphyromonas gingivalis, UniProt Q7MX71); format: biochemical
T2 construct: His tag (N, cleaved yes); made in house
T2 sequence (Q7MX71 7-399): as above
Description: This assay uses C^14-labeled methionine and recombinant, purified, HIS-TAG cleaved and further purified MEGL protein. The MEGL enzyme forms very specific radiolabeled nonvolatile C^14-labeled α-ketobutyrate. Further the products are separated by a silica gel-G thin layer chromatography (TLC) method using 75% acetonitrile and 25% 20 mM phosphate buffer (pH 7.0) solvent system.
Further characterization of the enzyme was made using these protocols.

[6] = system: BHK-21 cells; settings: BHK-21, 18 hours after transfection
Description: (§3) The effect of MEGL on cell viability was determined using 3-[4,5-dimethylthiazol-2-yl]-2,5-diphenyl-tetrazolium bromide (MTT, Sigma-Aldrich). For MTT assay, cells were suspended at a concentration of ˜4×10^4 cells (180 μl/well). 20 μl of MTT solution (5 mg/ml) was added for each well and incubate at 37° C. and 5% CO2 for about 2-5 hours for purple color development. Formazan precipitates were dissolved in DMSO for 30 minutes at 37° C., and the absorbance was measured at 570 nm.
(§4) Viability of cells transfected with MEGL construct. Three different cell lines (Hela, BHK-21, and HEK-AD293T) were plated in 96-well plates and transfected with either vector expressing green fluorescent protein, GFP (pEGFP-C3), or MEGL and GFP (pEGFP-C3-MEGL). After 18 hours of transfection, cells were treated with MTT and viability was determined by measuring the MTT absorbance at λ570 nm. Control absorbance was arbitrarily determined as 100% viability.

[7] = system: HEK-AD293T cells; settings: 18 hours after transfection
Description: as §3, §4

[8] = Description: Typically the overall reaction of α-ketobutyrate formation was performed in a total volume of 24 μl. The reaction contained 4 μl of reaction buffer [150 mM Tris-HCl (pH 8.0)], 4 μl of 1 mM pyridoxal phosphate (PLP), 3 μl of H2O, 6 μl of storage buffer, and 4 μl of diluted protein (0.4 μg), gently mixed and incubated at 37° C. for 5 minutes. The reaction was started by adding 1.93×10^5 cpm of 1-^14C-L-methionine (8814 cpm/nmol) and the contents were incubated at 37° C. for 15 minutes. The reaction was stopped by boiling for a minute, cooled on ice for 2 minutes and centrifuged at 3575 g for 7 minutes. A 2 μl aliquot was then chromatographed on a silica gel plate using 25% 20 mM phosphate buffer (pH 7.0) and 75% acetonitrile. Following chromatography, the TLC plates were dried, and exposed to x-ray film for 36-48 hours (Eastman-Kodak Co). The respective spots of substrate and products were cut out and radioactivity determined by liquid scintillation.
The activity was measured using different amounts of protein ranging from 0.1 to 1 μg and the reaction was performed for 5-30 minutes.
Reaction at each protein concentration was performed for 15 minutes at pH 8.0 according to the standard assay procedures described. Effect of time was tested using 0.4 μg of protein. […]

[9] = propargylglycine in culture medium (10 μM, 2 hours after transfection)

Compound: CSCC[C@@H](N)C(=O)O [D-methionine]
- relative MEGL/2ABD activity (L-methionine) in the presence of competing compound [1]: 43.6%

Compound: N[C@@H](CCSC[C@H](N)C(=O)O)C(=O)O [L-cystathionine]
- relative MEGL/2ABD activity (L-methionine) in the presence of competing compound [1]: 54.6%

Compound: N[C@@H](CS)C(=O)O [L-cysteine]
- relative MEGL/2ABD activity (L-methionine) in the presence of competing compound [1]: 24.5% and 25.5%

Compound: N[C@@H](CCOC(=O)CCC(=O)O)C(=O)O [o-succinyl-homoserine, O-succinyl L-homoserine]
- relative MEGL/2ABD activity (L-methionine) in the presence of competing compound [1]: 45.6%

Compound: C#CCC(N)C(=O)O (centres unmarked) [propargylglycine, reference compound]
- effect on cell aggregation of MEGL/2ABD-transfected BHK-21 cells [2, 9]: inhibited MEGL/2ABD mediated cell aggregation; also recorded: prevented cell aggregation; also recorded: inhibited the cell aggregation
- relative MEGL/2ABD activity (L-methionine) in the presence of competing compound [1]: 0.26%
- effect on cell aggregation of MEGL/2ABD-transfected HEK-AD293T cells [3, 9]: inhibited MEGL/2ABD mediated cell aggregation; also recorded: prevented cell aggregation; also recorded: inhibited the cell aggregation
- rescue of MEGL/2ABD-transfected HeLa cells from death [4]: restores cells from death; also recorded: restored viability
- rescue of MEGL/2ABD-transfected HeLa cells from death ([4]; listed as Propargylglycine): restored cells from death
- rescue of MEGL/2ABD-transfected HeLa cells from death ([4]; listed as propargyl glycine): restored nearly all cells from death
- effect of suicide inhibitor on MEGL activity [5]: completely knocked out the MEGL activity

Compound: C[Se]CC[C@H](N)C(=O)O [selenomethionine]
- relative MEGL/2ABD activity (L-methionine) in the presence of competing compound [1]: 33.15%
- relative MEGL/2ABD activity (L-methionine) in the presence of competing compound ([1]; listed as seleno-methionine): 33.2%

Compound: C[S+]([O-])CC[C@H](N)C(=O)O (some centres unmarked) [sulfoxymethionine, methionine-sulfoxide]
- relative MEGL/2ABD activity (L-methionine) in the presence of competing compound [1]: 46.71%
- relative MEGL/2ABD activity (L-methionine) in the presence of competing compound ([1]; listed as methionine-sulfoxide): 46.7%

Compound: methionine gamma lyase-2-aminobutyrate deaminase [MEGL-2ABD]
- effect of expressed MEGL/2ABD on BHK-21 cells: cell aggregation [2]: severe cell aggregation
- effect of expressed MEGL/2ABD on BHK-21 cells: cell aggregation ([2]; listed as MEGL): very prominent cell aggregation
- effect of expressed MEGL/2ABD on BHK-21 cells: cell aggregation ([2]; listed as MEGL/2ABD): severe cell aggregation; also recorded: significant cell aggregation
- effect of expressed MEGL/2ABD on HEK-AD293T cells: cell aggregation [3]: severe cell aggregation
- effect of expressed MEGL/2ABD on HEK-AD293T cells: cell aggregation ([3]; listed as MEGL): very prominent cell aggregation
- effect of expressed MEGL/2ABD on HEK-AD293T cells: cell aggregation ([3]; listed as MEGL/2ABD): severe cell aggregation; also recorded: significant cell aggregation
- cell death (words) ([6]; listed as MEGL): no significant cell death
- cell death (words) ([6]; listed as MEGL/2ABD): no cell death
- cell death (words) ([7]; listed as MEGL): no significant cell death
- cell death (words) ([7]; listed as MEGL/2ABD): no cell death
- effect of expressed MEGL/2ABD on HeLa cells ([4]; 18 hours after transfection, listed as MEGL/2ABD): causes cell death; also recorded: significant cell death; also recorded: significant apoptosis
- HeLa cell death ([4]; within 18 hours of transfection, judged by confocal images): 30%
- optimal temperature [5]: 37-55 °C
- pH optimum [5]: 8.0
- Vmax ([5]; oral pathology section): 0.57 μmol/min/mg protein
- overall α-ketobutyrate formation at temperatures 72-93° C. ([8]; 72-93° C.): very minimal
- temperature range of optimal activity ([8]; 15 minutes, pH 8.0, 0.4 μg protein): 37-55 °C
